Laboratory results reported in ChEMBL document CHEMBL1201862, “PubChem BioAssay data set” (2004).
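Results reflect a 48-hour exposure of cells in 96-well plates to compound at five concentrations. GI50: concentration for 50% inhibition of growth.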 Active and inactive are the calls of the source. Cut-off read from the data, not from the text of the source: active = GI50 up to about 1.1 µM and inactive = higher.

Key:
Assay in all cases: inhibition of tumour cell growth, NCI panel, 48 h
RXF 631 = system: RXF 631
LXFL 529 = system: LXFL 529
HOP-18 = system: HOP-18
DLD-1 = system: DLD-1
XF498 = system: XF498
DMS-273 = system: DMS-273
SNB-78 = system: SNB-78
M19-MEL = system: M19-MEL
DMS-114 = system: DMS-114

SMILES	GI50 (RXF 631)	GI50 (LXFL 529)	GI50 (HOP-18)	GI50 (DLD-1)	GI50 (XF498)	GI50 (DMS-273)	GI50 (SNB-78)	GI50 (M19-MEL)	GI50 (DMS-114)
CC(=O)Nc1ccccc1[S+]([O-])c1ccccc1 (stereo unspecified)	> 100 µM (inactive)	> 100 µM (inactive)	> 100 µM (inactive)	> 100 µM (inactive)	> 100 µM (inactive)	> 100 µM (inactive)	> 100 µM (inactive)	> 100 µM (inactive)	> 100 µM (inactive)
CCOC(=O)C(=O)Nc1nc2c(OCC)cccc2s1	> 100 µM (inactive)	> 100 µM (inactive)	> 100 µM (inactive)	> 100 µM (inactive)		> 100 µM (inactive)	> 100 µM (inactive)	> 100 µM (inactive)	> 100 µM (inactive)
O=C(Nc1cccc(NC(=O)c2cc(=O)c3ccccc3o2)n1)c1cc(=O)c2ccccc2o1	51.5 µM (inactive)	7.69 µM (inactive)		75.9 µM (inactive)		9.64 µM (inactive)	> 100 µM (inactive)	> 100 µM (inactive)	19.2 µM (inactive)
Cc1ccc(S(=O)(=O)n2cc(/C=C/C#N)c(/C=C/C#N)c2)cc1	> 100 µM (inactive)	> 100 µM (inactive)	20.8 µM (inactive)		> 100 µM (inactive)	49.5 µM (inactive)		> 100 µM (inactive)	22.6 µM (inactive)
C#CCN(C)C(=O)N(CC#C)N=O	> 100 µM (inactive)	> 100 µM (inactive)	> 100 µM (inactive)	> 100 µM (inactive)		> 100 µM (inactive)	> 100 µM (inactive)	> 100 µM (inactive)	> 100 µM (inactive)
COc1ccc(CNc2nc3ccccc3nc2-c2cccs2)cc1OC	29.7 µM (inactive)	15.7 µM (inactive)	> 100 µM (inactive)		16 µM (inactive)	50.5 µM (inactive)	82.8 µM (inactive)	33.1 µM (inactive)	
Cc1ccc(C(=O)NC(C)C)cc1/N=N/N(C)C		> 100 µM (inactive)		65 µM (inactive)		> 100 µM (inactive)	> 100 µM (inactive)	> 100 µM (inactive)	
CCOC(=O)CC1NC(=O)CS1 (stereo unspecified)	> 100 µM (inactive)	> 100 µM (inactive)	> 100 µM (inactive)	42.5 µM (inactive)		37.7 µM (inactive)	> 100 µM (inactive)	> 100 µM (inactive)	25.1 µM (inactive)
O=c1c2ccccc2n2nnc3ccc(NCCNCCO)c1c32	1.85 µM (inactive)	2.42 µM (inactive)	0.183 µM (active)	2.19 µM (inactive)	5.7 µM (inactive)	2.62 µM (inactive)	7.71 µM (inactive)	2.26 µM (inactive)	3.2 µM (inactive)
CC(=O)O[C@H]1C(=O)[C@@]2(C)C(C(OC(=O)c3ccccc3)[C@]3(O)C[C@H](OC(=O)C(OC(=O)CCCC(=O)NCCCN(C)C)C(NC(=O)c4ccccc4)c4ccccc4)C(C)=C1C3(C)C)C1(OC(C)=O)COC1C[C@@H]2O (stereo partly specified)	0.0355 µM (active)	< 0.01 µM (active)	0.916 µM (active)	0.0194 µM (active)	< 0.01 µM (active)	< 0.01 µM (active)	2.49 µM (inactive)	< 0.01 µM (active)	< 0.01 µM (active)
COc1ccccc1NC(=O)C1=C(C)NC(C)=C(C(=O)Nc2ccccc2OC)C1c1ccc(C2C(C(=O)Nc3ccccc3OC)=C(C)NC(C)=C2C(=O)Nc2ccccc2OC)cc1	3.46 µM (inactive)	1.89 µM (inactive)	18 µM (inactive)	1.22 µM (inactive)	2.21 µM (inactive)	2.32 µM (inactive)	4.16 µM (inactive)	3.15 µM (inactive)	3.52 µM (inactive)
